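Growth conditions: 96-well plates. Treatment: test compound, 48 hours, 5 concentrations. Analysis: linear interpolation between bracketing concentrations; unreached endpoints set to highest concentration. Abbreviation: GI50, concentration required for 50% inhibition of growth. TGI denotes the concentration required for complete inhibition of growth.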
Legend:
Test in all cases: NCI tumour cell line growth inhibition, 48 h
DU-145 prostate = system: DU-145 prostate
IGROV1 ovarian = system: IGROV1 ovarian
MCF7 breast = system: MCF7 breast
MDA-MB-435 = system: MDA-MB-435
NCI-H226 lung = system: NCI-H226 lung
OVCAR-3 ovarian = system: OVCAR-3 ovarian
SF-268 CNS = system: SF-268 CNS
SNB-19 CNS = system: SNB-19 CNS
TK-10 renal = system: TK-10 renal
SK-OV-3 ovarian = system: SK-OV-3 ovarian

SMILES | GI50 (DU-145 prostate) [µM] | TGI (DU-145 prostate) [µM] | GI50 (IGROV1 ovarian) [µM] | TGI (IGROV1 ovarian) [µM] | GI50 (MCF7 breast) [µM] | TGI (MCF7 breast) [µM] | GI50 (MDA-MB-435) [µM] | TGI (MDA-MB-435) [µM] | GI50 (NCI-H226 lung) [µM] | TGI (NCI-H226 lung) [µM] | GI50 (OVCAR-3 ovarian) [µM] | TGI (OVCAR-3 ovarian) [µM] | GI50 (SF-268 CNS) [µM] | TGI (SF-268 CNS) [µM] | GI50 (SNB-19 CNS) [µM] | TGI (SNB-19 CNS) [µM] | GI50 (TK-10 renal) [µM] | TGI (TK-10 renal) [µM] | TGI (SK-OV-3 ovarian) [µM] | GI50 (SK-OV-3 ovarian) [µM]
CCN(CC)CCCC(C)NC(=S)N/N=C(\C)c1ccccn1 (configuration not stated) | 3.79 | > 100 | 5.64 | > 100 | 2.94 | > 100 | 5.17 | > 100 | 2.28 | 21.2 | 3.87 | > 100 | 3.19 | > 100 | 7.83 | > 100 | 21.6 | > 100 |  | 
Cc1cc(N2CCOCC2)nc(N(CCNc2ccnc3cc(Cl)ccc23)Cc2cccs2)n1 |  |  | 1.96 | 4.97 | 1.97 | 4.68 | 1.76 | 3.32 |  |  |  |  | 3.27 | 10.6 | 4.24 | 76.2 | 2.35 | 6.57 |  | 
COc1cc(OC)c(-c2oc3ccccc3c(=O)c2O)c(OC)c1 |  | > 100 |  | > 100 |  | > 100 |  | 2.5 |  | > 100 |  |  |  | > 100 |  | > 100 |  | > 100 | > 100 | 
Cc1nn(C(=O)CC(=O)Nc2ccccc2Cl)c(C)c1N=Nc1ccccc1Cl |  |  |  | > 100 |  |  |  |  |  |  |  | > 100 |  | > 100 |  | > 100 |  | > 100 | > 100 | 
O=S(O)CCCSSCCCCSSCCCS(=O)O |  |  |  | > 100 |  |  |  |  |  |  |  | > 100 |  | > 100 |  | > 100 |  | > 100 | > 100 | 
O=C(Nc1cccc(Cl)c1)c1cc2cc(N=Nc3ccc(Br)cc3)ccc2oc1=O |  |  |  | > 100 |  |  |  |  |  |  |  | > 100 |  | > 100 |  | > 100 |  | > 100 | > 100 | 
O=C1c2cccc3cc4ccccc4c(c23)C(=O)N1CCCNCCNCCCN1C(=O)c2cccc3cc4ccccc4c(c23)C1=O |  | 2.04 |  | 1.72 |  |  |  | 1.73 |  |  |  | 1.86 |  | 2.18 |  | 2.23 |  | 2.18 | 1.65 | 
CC(=O)OC12CCCCC1C1(CCCC1)NC2=O (configuration not stated) |  |  |  | > 100 |  |  |  |  |  | > 100 |  | > 100 |  | > 100 |  | > 100 |  | > 100 | > 100 | 
Cc1ccc(S(=O)(=O)c2ccccn2)cc1 |  |  |  | > 100 |  |  |  |  |  | > 100 |  | > 100 |  | > 100 |  | > 100 |  | > 100 | > 100 | 
Nc1n[nH]c(=O)c2c1c(Br)cn2C1OC(CO)C(O)C1O (configuration not stated) |  |  |  | > 100 |  |  |  |  |  | 59.3 |  | > 50.8 |  | 55.4 |  | > 100 |  | > 100 | > 100 | 
O=C(Cc1nc2ccccc2s1)C(=O)Nc1ccccc1C(F)(F)F |  |  |  | > 100 |  |  |  |  |  | > 100 |  | > 100 |  | > 100 |  | > 100 |  | > 100 | > 100 | 
Cc1ccc(S(=O)(=O)NC2(C=O)CCC(C(C)(C)C)CC2)cc1 (configuration not stated) |  |  |  | > 100 |  |  |  |  |  | > 100 |  | > 100 |  | > 100 |  | > 100 |  | > 100 | > 100 | 
O=C1/C(=C/c2ccc([N+](=O)[O-])s2)Oc2ccc(Cl)cc21 |  |  | 0.311 | 0.983 | 0.305 | 1.43 | 0.457 | 1.55 | 1.39 | 3.93 | 0.229 | 0.48 | 0.405 | 1.53 | 0.512 | 1.55 | 0.372 | 26.9 | 4.42 | 2.1
COc1ccc(C2CC(c3ccc(OC)c(OC)c3)=NN2C(=O)c2cc(OC)c(OC)c(OC)c2)cc1 (configuration not stated) | 3.79 | > 100 | 3.32 | > 100 | 0.647 | > 100 | 0.409 | 2.02 | 3.06 | > 100 |  |  | 5.06 | > 100 | 4.67 | > 100 | 5.26 | > 100 | > 100 | 1.76
COc1ccc2nccc(C3OC(=O)N4CCC(=O)CC34)c2c1 (configuration not stated) |  |  |  | > 100 |  |  |  |  |  | > 100 |  | > 100 |  | > 100 |  | > 100 |  | > 100 |  | 
CCc1cccc(C(C)C)c1C1C(=O)C(=O)N(c2nc3ccccc3s2)C(=O)C1=O |  |  |  | > 100 |  |  |  |  |  | > 100 |  | > 100 |  | > 100 |  | > 100 |  | > 100 | > 100 | 
O=c1c2ccccc2nc(-c2ccccc2Cl)n1NC1OC(CO)C(O)C(O)C1O (configuration not stated) |  |  |  | > 100 |  |  |  |  |  | > 100 |  | > 100 |  | > 100 |  | > 100 |  | > 100 | > 100 | 
Cc1nn(-c2ccccc2)c2ncc3c(c12)C(=O)N(Cc1ccccc1)C3=O | 72.2 | > 100 | 5.37 | 64.7 | > 100 | > 100 | > 100 | > 100 | 3.46 | 13 | 3.31 | 9.84 | 7.66 | 66.5 | 12.7 | > 100 |  |  | > 100 | 5.73
S=C(N/N=C/c1ccccc1)NC1CC(c2ccccc2)Oc2ccccc21 (configuration not stated) |  |  |  | > 100 |  |  |  |  |  | > 100 |  | 28.7 |  | > 100 |  | > 100 |  |  | > 100 | 
O=C1OC2C(O)COC2(OCc2c[nH]c3ccccc23)C1O (configuration not stated) (tested in a mixture with another compound) |  |  |  | > 100 |  |  |  |  |  | > 100 |  | > 100 |  | > 100 |  | > 100 |  | > 100 | > 100 | 
COc1ccc(/C=C(\NC(=O)c2ccccc2)c2nc3ccccc3[nH]2)cc1 |  |  |  | > 100 |  |  |  |  |  | > 100 |  | > 100 |  | > 100 |  | > 100 |  |  | 96.5 | 
COC(=O)c1c(OC(=O)c2ccccc2)noc1CC(=O)OC1C=CCCC1 (configuration not stated) |  |  |  | > 100 |  |  |  |  |  | > 100 |  | > 100 |  | > 100 |  | > 100 |  | > 100 | > 100 | 
COc1cc(C2C(C(=O)Nc3ccc(Cl)c(Cl)c3)=C(C)NC(C)=C2C(=O)Nc2ccc(Cl)c(Cl)c2)ccc1O |  |  |  | 42 |  |  |  |  |  | 40.8 |  | 27.7 |  | 30.8 |  | 25.6 |  | 42.6 | 34.5 | 
